Assay results from PMC6369734, “Spy vs. spy: selecting the best reporter for ^19F NMR competition experiments” (Chemical Communications (Cambridge, England), 2019).
Like-named read-outs stand apart in the source and are kept apart here. Blank lines part the entries; values can stand above or below the compound they belong to.

How the values were obtained:
[1] = target: T1, VHL (VBC complex: pVHL54-213, eloB1-104, eloC17-112) (Homo sapiens, UniProt P40337); experiment: Surface plasmon resonance (SPR) steady-state binding to immobilised biotinylated AviVBC
T1 construct: equimolar complex of pVHL54-213, eloB1-104 and; made in house; host or cells: E. coli
Experimental: The KD of each compound to VHL was determined by surface plasmon resonance (SPR) experiments.
3. Protein expression, purification and biotinylation
The VHL E3 ligase is a multi-protein complex composed of five proteins: VHL protein (pVHL), elongin B (eloB), elongin C (eloC), Cullin-2 (Cul2) and Ring-box protein 1 (Rbx1).[3] Since the compounds developed in this work bind solely to the VHL protein, the VBC complex (equimolar complex of pVHL54-213, eloB1-104 and eloC17-112) was used in all experiments, as it can be readily expressed in E. coli with high yields,[4] while the full E3 ligase would require baculovirus-insect cells expression system.[5] The expression and purification of VBC was performed as described previously by our group[2] and employed directly in all NMR experiments.
For the surface plasmon resonance (SPR) experiments, a VBC complex containing an AviTagTM in the N-terminus of eloB (AviVBC) was purified using the same procedure described for VBC. The modified eloB/eloC expression plasmid was previously developed in-house by Dr. Michael Roy and kindly shared. The AviVBC complex was site-specifically biotinylated in the AviTag using the GST-BirA method previously described by […]
4. Surface plasmon resonance experiments
The SPR experiments were performed with a Biacore T200 instrument (GE Healthcare). All measurements were performed at 20 °C with buffer containing 10 mM HEPES, pH 7.5, 150 mM NaCl, 1 mM TCEP, 0.005% (v/v) Tween® 20 and 2% (v/v) dimethyl sulfoxide (DMSO). Biotinylated AviVBC (~0.5 μM) was immobilised at 22 °C onto a Series S sensor chip SA (GE Heathcare) to levels of approximately 3500-4000 response units […]
Solutions of each spy molecule were prepared in buffer at concentrations based on previous structure-activity relationship studies of VHL ligands (K D expected in the nanomolar range for structures like spy molecules 16 and 22, or in the milimolar range for spy molecules similar to 1 and 9). From this first screen, the binding affinities were roughly estimated using the Biacore T200 evaluation software (GE Healthcare), then measurements were repeated using concentrations above and below the KD obtained in the first round to generate better curves for fitting the data accurately. Contact and dissociation times varied across the different compounds tested, but in […]
dissociated from the surface in less than sixty seconds.
Data analysis was performed using the steady state responses of the double-referenced sensorgrams (raw data subtracted from blank and reference surface injections) obtained for each concentration tested. These responses were plotted against the respective concentrations and the data fitted to a 1: 1 binding model u sing the Biacore T200 evaluation software and the following equation: […]
Where Req is the steady-state response at a given concentration C. Deviations in Req were corrected by adding an ‘offset’ term to the equation. KD is the dissociation constant to be determined and RMAX is the maximum response expected for a given compound according to the equation below:
Where n is the stoichiometry of the interaction ( in this case, n = 1) and RProtein is the immobilization level of protein. MWCompound and MWProtein are the molecular weights of compound and protein, respectively. Sensorgrams and fitting parameters for all spy molecules can be found in section 7.

VHL (VBC complex) = target: T2, VHL (VBC complex) (Homo sapiens, UniProt P40337); experiment: 19F CPMG NMR transverse relaxation rate (R2) and R2 contrast (C2) of spy molecule with and without protein; assay type: binding
T2 construct: equimolar complex of pVHL54-213, eloB1-104 and; made in house; host or cells: E. coli
Description: Due to the large CSA of fluorine and the significant differences in the fluorine isotropic chemical shift (δF) between the free and bound states, the transverse relaxation rate (R2) is a well-established sensitive parameter to detect ligand binding.[4] Therefore, fluorine NMR experiments including a Carr–Purcell–Meiboom–Gill (CPMG) spin-echo filter[10] before acquisition were employed to monitor ligand binding to VHL by measuring peak intensity, as changes in other NMR parameters, such as chemical shift and peak width, were not as significant. The R2 values of the CF3 peak of each compound in the absence and in the presence of protein were determined by performing multiple ^19F CPMG experiments varying the CPMG filter (Fig. 2a). To quantify the shift in R2 upon binding, the R2 contrast (C2)[11] was determined. Ideally, a good spy molecule should have a large increase in R2 (fast relaxation) when protein is present, resulting in a large assay window for the competition experiments (Fig. 2b).
5. Measurement of the transverse relaxation rates by 19F CPMG NMR
All the NMR experiments were performed in a 500 MHz Bruker AVANCE N MR spectrometer equipped with a CPQCI -F cryoprobe. To measure the transverse relaxation rates (R 2), a solution of each spy molecule at 100 μM was prepared in 50 mM potassium phosphate monobasic (KH2PO4), pH 7.5, 100 mM NaCl, 1 mM TCEP, 2% (v/v) DMSO, 20% D2O and 10 µM trifluoroacetic acid (TFA). For each solution, 19F CPMG experiments […]
Due to the fast relaxation of molecules 21 and 22, these experiments were repeated with shorter CPMG filters (50, 100, 150, 200, 300, 400, 700 and 1000 ms). The fluorine peaks were integrated and plotted against the resp ective CPMG filters. The R 2 relaxation rates were obtained from fitting the data as a n exponential decay (GraphPad Prism 6) according to the equation below: [7]
Where I(t) is the 19F signal intensity or integral, t is the total CPMG filter in seconds, I(0) is the signal intensity when t = 0. To obtain the R2 upon addition of prot ein, all the experiments above were repeated in presence of VBC at 1 µM. Experiments were performed as triplicates and the R 2 contrasts (C2) were obtained according to the equation below: [8]
Where R2Free is the R2 obtained for the spy molecule free in solution and R2Observed is the R2 obtained with the spy molecule in presence of VBC. The raw data, fitting, R2 and C2 values for each spy molecule can be found in section 8.1. For the R2 measurements using molecule 19 at varied concentrations of spy molecule and protein, see section 8.2 . For the R2 measurements using spy molecules 6 and 11 (used to generate figures S 2, S3 and S4) see

[2] = SPR steady-state fit, supplement section 7, read-out: KD (Biacore T200 fit)
[3] = SPR, 20 °C, steady-state 1:1 fit, footnote b values fitted because RMAX was not reached experimentally, read-out: K D, SPR
[4] = Spy molecule 100 μM + VBC 1 μM, supplement 8.1
[5] = Spy molecule 100 μM, no protein
[6] = Spy molecule 19 at 10 µM, VBC 0.125 μM
[7] = Spy molecule 19 at 10 µM, VBC 0.250 μM
[8] = Spy molecule 19 at 10 µM, VBC 0.500 μM
[9] = Spy molecule 19 at 10 µM, VBC 1.000 μM
[10] = Spy molecule 19 at 25 µM, VBC 0.125 μM
[11] = Spy molecule 19 at 25 µM, VBC 0.250 μM
[12] = Spy molecule 19 at 25 µM, VBC 0.500 μM
[13] = Spy molecule 19 at 25 µM, VBC 1.000 μM
[14] = Spy molecule 19 at 50 µM, VBC 0.125 μM
[15] = Spy molecule 19 at 50 µM, VBC 0.250 μM
[16] = Spy molecule 19 at 50 µM, VBC 0.500 μM
[17] = Spy molecule 19 at 50 µM, VBC 1.000 μM
[18] = spy concentration not given, VBC 0.125 μM
[19] = spy concentration not given, VBC 0.250 μM
[20] = spy concentration not given, VBC 0.500 μM
[21] = spy concentration not given, VBC 1.000 μM

T2 sequence (P40337 54-213): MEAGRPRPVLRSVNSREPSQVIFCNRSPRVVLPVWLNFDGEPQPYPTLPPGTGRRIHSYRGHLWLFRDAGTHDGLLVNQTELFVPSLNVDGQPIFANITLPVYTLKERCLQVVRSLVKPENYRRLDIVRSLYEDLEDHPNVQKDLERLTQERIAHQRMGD
T2 sequence (Q15370 1-104 partner limits assumed): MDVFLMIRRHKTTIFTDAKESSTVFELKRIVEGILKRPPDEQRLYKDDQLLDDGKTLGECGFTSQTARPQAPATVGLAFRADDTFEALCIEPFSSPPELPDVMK
T2 sequence (Q15369 17-112 partner limits assumed): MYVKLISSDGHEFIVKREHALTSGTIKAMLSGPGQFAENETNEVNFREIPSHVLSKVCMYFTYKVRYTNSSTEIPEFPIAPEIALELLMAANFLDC
T1 sequence (P40337 54-213): as the sequence (P40337 54-213) above
T1 sequence (Q15370 1-104 partner limits assumed): as the sequence (Q15370 1-104 partner limits assumed) above
T1 sequence (Q15369 17-112 partner limits assumed): as the sequence (Q15369 17-112 partner limits assumed) above

Kd [1, 2]: 407 µM | Kd [1, 3]: 407 ± 5 µM | R2 (VHL (VBC complex); Spy molecule 100 μM + VBC 1 μM): 1.847 ± 0.033 s⁻¹ | R2 contrast – C2 (VHL (VBC complex); [4]): 28.2 ± 2.3% | R2 (VHL (VBC complex); [5]): 1.326 ± 0.025 s⁻¹
Structure (SMILES): CC(C)(C)CC(=O)N1C[C@H](O)C[C@H]1C(=O)NCc1ccc(Br)c(C(F)(F)F)c1 [Compound 3]

Kd [1, 3]: 1350 ± 94 µM | R2 (VHL (VBC complex); Spy molecule 100 μM + VBC 1 μM): 2.596 ± 0.046 s⁻¹ | R2 contrast – C2 (VHL (VBC complex); [4]): 51.9 ± 2.1% | R2 (VHL (VBC complex); [5]): 1.249 ± 0.018 s⁻¹
Structure (SMILES): CC(=O)N1C[C@H](O)C[C@H]1C(=O)NCc1ccc(Br)cc1C(F)(F)F [Compound 10]

binding kinetics / dissociation rates by SPR ([1]; SPR): too high to be determined accurately | Kd [1, 2]: 1.14 µM | Kd [1, 3]: 1.14 ± 0.12 µM | R2 (VHL (VBC complex); Spy molecule 100 μM + VBC 1 μM): 1.637 ± 0.028 s⁻¹ | R2 contrast – C2 (VHL (VBC complex); [4]): 7.6 ± 2.4% | R2 (VHL (VBC complex); [5]): 1.512 ± 0.029 s⁻¹
Structure (SMILES): CC(=O)NC(C(=O)N1CC(O)CC1C(=O)NCc1ccc(Br)cc1C(F)(F)F)C(C)(C)C (centres unmarked) [Compound 12]

Kd [1, 2]: 145 µM | Kd [1, 3]: 145 ± 29 µM | R2 (VHL (VBC complex); Spy molecule 100 μM + VBC 1 μM): 5.096 ± 0.186 s⁻¹ | R2 contrast – C2 (VHL (VBC complex); [4]): 70.1 ± 4.5% | R2 (VHL (VBC complex); [5]): 1.526 ± 0.041 s⁻¹ | R2 (VHL (VBC complex); Spy molecule 19 at 10 µM, VBC 0.000 μM): 1.464 ± 0.096 s⁻¹ | R2 (VHL (VBC complex); [6]): 2.346 ± 0.193 s⁻¹ | R2 contrast – C2 (VHL (VBC complex); [6]): 35.0 ± 8.9% | R2 (VHL (VBC complex); [7]): 2.807 ± 0.131 s⁻¹ | R2 contrast – C2 (VHL (VBC complex); [7]): 45.6 ± 5.3% | R2 (VHL (VBC complex); [8]): 4.288 ± 0.304 s⁻¹ | R2 contrast – C2 (VHL (VBC complex); [8]): 64.4 ± 8.5% | R2 (VHL (VBC complex); [9]): 7.974 ± 0.727 s⁻¹ | R2 contrast – C2 (VHL (VBC complex); [9]): 80.9 ± 11.7% | R2 (VHL (VBC complex); Spy molecule 19 at 25 µM, VBC 0.000 μM): 1.582 ± 0.049 s⁻¹ | R2 (VHL (VBC complex); [10]): 2.107 ± 0.095 s⁻¹ | R2 contrast – C2 (VHL (VBC complex); [10]): 27.6 ± 5.1% | R2 (VHL (VBC complex); [11]): 2.811 ± 0.156 s⁻¹ | R2 contrast – C2 (VHL (VBC complex); [11]): 45.7 ± 6.3% | R2 (VHL (VBC complex); [12]): 4.008 ± 0.200 s⁻¹ | R2 contrast – C2 (VHL (VBC complex); [12]): 61.9 ± 5.9% | R2 (VHL (VBC complex); [13]): 6.934 ± 0.348 s⁻¹ | R2 contrast – C2 (VHL (VBC complex); [13]): 78.0 ± 6.4% | R2 (VHL (VBC complex); Spy molecule 19 at 50 µM, VBC 0.000 μM): 1.475 ± 0.059 s⁻¹ | R2 (VHL (VBC complex); [14]): 1.969 ± 0.071 s⁻¹ | R2 contrast – C2 (VHL (VBC complex); [14]): 22.5 ± 4.2% | R2 (VHL (VBC complex); [15]): 2.316 ± 0.168 s⁻¹ | R2 contrast – C2 (VHL (VBC complex); [15]): 34.1 ± 7.9% | R2 (VHL (VBC complex); [16]): 3.857 ± 0.121 s⁻¹ | R2 contrast – C2 (VHL (VBC complex); [16]): 60.4 ± 3.8% | R2 (VHL (VBC complex); [17]): 6.424 ± 0.262 s⁻¹ | R2 contrast – C2 (VHL (VBC complex); [17]): 76.2 ± 5.2% | R2 (VHL (VBC complex); spy concentration not given, VBC 0.000 μM): 1.392 ± 0.101 s⁻¹ | R2 (VHL (VBC complex); [18]): 2.337 ± 0.335 s⁻¹ | R2 contrast – C2 (VHL (VBC complex); [18]): 34.7 ± 15.3% | R2 (VHL (VBC complex); [19]): 3.678 ± 0.489 s⁻¹ | R2 contrast – C2 (VHL (VBC complex); [19]): 58.5 ± 15.5% | R2 (VHL (VBC complex); [20]): 4.255 ± 0.566 s⁻¹ | R2 contrast – C2 (VHL (VBC complex); [20]): 64.1 ± 15.8% | R2 (VHL (VBC complex); [21]): 7.063 ± 1.128 s⁻¹ | R2 contrast – C2 (VHL (VBC complex); [21]): 78.4 ± 20.3%
Structure (SMILES): O=C(NCc1ccc(Br)cc1)C1CC(O)CN1C(=O)CC(F)(F)F (centres unmarked) [Compound 19]
